US9108969B2, “Substituted tricyclic acid derivatives as S1P1 receptor agonists useful in the treatment of autoimmune and inflammatory disorders” (Arena Pharmaceuticals, Inc., priority 2008, dated 2015)

What was measured:
[1] = test system: peripheral blood lymphocyte (PBL) count; test: Mouse peripheral lymphocyte lowering (PLL) assay; type: in vivo, Male BALB/c mice; settings: oral dose, 5 hours post-dose, FIG. 11
Experimental: Animals: Male BALB/c mice (Charles River Laboratories, Wilmington, Mass.) were housed four per cage and maintained in a humidity-controlled (40 to 60%) and temperature-controlled (68 to 72° F.) facility on a 12 h:12 h light/dark cycle (lights on at 6:30 am) with free access to food (Harlan Teklad, Orange, Calif., Rodent Diet 8604) and water. Mice were allowed one week of habituation to the animal facility before testing.
PLL Assay: Mice were given an oral dose of Compound 2 or dosing vehicle (0.5% methylcellulose) in a total volume of 10 mL/kg. Peripheral blood samples were collected at 5 hours post-dose. The mice were anesthetized with isoflurane and blood was collected via cardiac puncture. A complete cell count (CBC), including lymphocyte count, was obtained using a CELL-DYN® 3700 (Abbott Laboratories, Abbott Park, Ill.) instrument. Results are presented in FIG. 11, in which peripheral blood lymphocyte (PBL) count is shown for the 5 hour group.

human S1P1 receptor = target: T1, human S1P1 receptor (Homo sapiens, UniProt P21453); test: HTRF assay for direct cAMP measurement (S1P1 agonism); type: cell-based; settings: recombinant CHO-K1 cells stably transfected with S1P1; decrease of cAMP
T1 construct: expressed in transfected cells; host or cells: CHO-K1 (ATCC CCL-61), stably transfected
T1 sequence (P21453 whole entry): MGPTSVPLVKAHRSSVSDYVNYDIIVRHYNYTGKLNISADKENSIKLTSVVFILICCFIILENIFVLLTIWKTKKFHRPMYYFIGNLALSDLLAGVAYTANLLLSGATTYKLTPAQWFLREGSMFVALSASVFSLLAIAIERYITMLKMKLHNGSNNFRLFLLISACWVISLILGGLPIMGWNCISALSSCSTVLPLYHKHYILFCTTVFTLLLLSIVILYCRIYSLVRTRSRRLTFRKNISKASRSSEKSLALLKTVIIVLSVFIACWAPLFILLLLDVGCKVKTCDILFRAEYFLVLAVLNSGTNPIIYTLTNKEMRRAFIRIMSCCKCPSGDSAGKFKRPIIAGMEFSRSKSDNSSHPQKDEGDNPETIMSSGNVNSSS
Text: Compounds were screened for agonists of the S1P1 receptor (e.g., human S1P1 receptor) using the HTRF® assay for direct cAMP measurement (Gabriel et al., Assay and Drug Development Technologies, 1:291-303, 2003) and recombinant CHO-K1 cells stably transfected with S1P1. CHO-K1 cells were obtained from ATCC® (Manassas, Va.; Catalog #CCL-61). An agonist of the S1P1 receptor was detected in the HTRF® assay for direct cAMP measurement as a compound which decreased cAMP concentration. HTRF® assay also was used to determine EC50 values for S1P1 receptor agonists.
Principle of the Assay:HTRF® assay kit was purchased from Cisbio-US, Inc. (Bedford, Mass.; Catalog #62AM4PEC). The HTRF® assay supported by the kit is a competitive immunoassay between endogenous cAMP produced by the CHO-K 1 cells and tracer cAMP labeled with the dye d2. The tracer binding is visualized by a monoclonal anti-cAMP antibody labeled with Cryptate. The specific signal (i.e., fluorescence resonance energy transfer, FRET) is inversely proportional to the concentration of unlabeled cAMP in the standard or sample.
Standard Curve:The fluorescence ratio (665 nm/620 nm) of the standards (0.17 to 712 nM cAMP) included in the assay was calculated and used to generate a cAMP standard curve according to the kit manufacturer's instructions. The fluorescence ratio of the samples (test compound or compound buffer) was calculated and used to deduce respective cAMP concentrations by reference to the cAMP standard curve.
Setup of the Assay: The HTRF® assay was carried out using a two-step protocol essentially according to the kit manufacturer's instructions, in 20 μL total volume per well in 384-well plate format (ProxiPlates; PerkinElmer, Fremont, Calif.; catalog #6008280). To each of the experimental wells was transferred 1500 recombinant CHO-K1 cells in 5 μL phosphate buffered saline containing calcium chloride and magnesium chloride (PBS+; Invitrogen, Carlsbad, Calif.; catalog #14040) supplemented with IBMX (250 μM) and rolipram (20 μM) (phosphodiesterase inhibitors; Sigma-Aldrich, St. Louis, Mo.; catalog #15879 and catalog #R6520, respectively), followed by test compound in 5 μL compound buffer (PBS+ supplemented with […] (water-soluble forskolin derivative; SignaGen Laboratories, Gaithersburg, Md.; catalog #PKI-NKH477-010)) or 5 μL compound buffer. The plate was then incubated at room temperature for 1 h. To each well was then added 5 μL cAMP-d2 conjugate in lysis buffer and 5 μL Cryptate conjugate in lysis buffer according to the kit manufacturer's instructions. The plate was then further incubated at room temperature for 1 hour, after which the assay plate was read.
Assay Readout: HTRF® readout was accomplished using a PHERAstar (BMG LABTECH Inc., Durham, N.C.) or EnVision™ (PerkinElmer, Fremont Calif.) microplate reader.

[2] = test system: peripheral blood lymphocyte (PBL) count; test: Rat peripheral lymphocyte lowering (PLL) assay; type: in vivo, Male Sprague-Dawley rats; settings: 1 mg/kg intravenous dose, 5 h post-dose, FIG. 12 and 13
Experimental: Animals: Male Sprague-Dawley rats (Charles River Laboratories, Hollister, Calif.) were housed and maintained in humidity (40 to 60%) and temperature (68 to 72° F.) controlled facility on a 12 h:12 h light/dark cycle (lights on at 6:30 am) with free access to food (Harlan Teklad, Orange, Calif., Rodent Diet 8604) and water. Rats were allowed (approximately) one week of habituation to the animal facility before testing.
PLL Assay: Rats were given a 1 mg/kg intravenous dose of the first enantiomer isolated after resolution of compound 12 by HPLC (retention time: 15 min per the conditions reported in Example 1.3), or dosing vehicle (40% hydroxypropyl-cyclodextrin (HPCD)) in a total volume of 1 mL/kg. Peripheral blood samples were collected at 5 h post-dose. Blood was collected via indwelling catheter. A complete cell count (CBC), including lymphocyte count, was obtained using a CELL-DYN® 3700 (Abbott Laboratories, Abbott Park, Ill.) instrument. Results are presented in FIG. 12, in which peripheral blood lymphocyte (PBL) count is shown for the 5 hour group.
Similarly, rats were given a 1 mg/kg intravenous dose of the second enantiomer isolated after resolution of compound 12 by HPLC (retention time: 18 min per the conditions reported in Example 1.3), or dosing vehicle (40% hydroxypropyl-cyclodextrin (HPCD)) in a total volume of 1 mL/kg. […]

[3] = test system: collagen-induced arthritis; test: Collagen-induced arthritis assay; type: in vivo, Female Lewis rats; settings: rat, 0.3, 1 and 3 mg/kg p.o. q.d. day 0 through day 16, FIG. 14
Experimental: Female Lewis rats were used in this study. Acclimated animals were anesthetized with isoflurane and given the first collagen injection (day 0). On day 6, they were anesthetized again for the second collagen injection. Collagen was prepared by making a 4 mg/mL solution in 0.01 N acetic acid. Equal volumes of collagen and incomplete Freund's adjuvant were emulsified by hand mixing until a bead of this material held its form when placed in water. Each animal received 300 μL of the mixture each time, spread over 3 subcutaneous sites on the back.
Treatment (p.o., q.d., 5 mL/kg dosing volume) began on day 0 and continued through day 16 with vehicle or compounds given at 24 h intervals. Rats were weighed on days 0, 3, 6 and 9 through 17 and caliper measurements of the ankles taken on days 9 through 17.
The second enantiomer isolated after resolution of compound 12 by HPLC (retention time: 18 min per the conditions reported in Example 1.3), was dosed at 0.3, 1 and 3 mg/kg.

peripheral lymphocytes = settings: Hale et al. 2004; cited from earlier work
[4] = attributed to agonism of the S1P3 receptor; cited from earlier work
multiple sclerosis = settings: patients with multiple sclerosis, Phase II; cited from earlier work
[5] = test system: experimental autoimmune uveoretinitis; settings: short-term high dose; cited from earlier work
[6] = test system: ovariectomy-induced osteoporosis; settings: mice; cited from earlier work
[7] = test system: VEGF-induced vascular permeability; settings: mice, oral administration; cited from earlier work
[8] = test system: spared nerve injury model; settings: cited from earlier work
[9] = test system: contact hypersensitivity (CHS); settings: murine; cited from earlier work
[10] = test system: experimental autoimmune myasthenia gravis (EAMG); settings: prophylactic oral administration, 1 mg/kg, three times a week, C57BL/6 mice; cited from earlier work

N#Cc1cc(COc2ccc3c(c2)cc2n3CCC2CC(=O)O)cc(OC(F)(F)F)c1 (centres unmarked) [Compound 2, 2-(7-(3-cyano-5-(trifluoromethoxy)benzyloxy)-2,3-dihydro-1H-pyrrolo[1,2-a]indol-1-yl)acetic acid]
peripheral blood lymphocyte (PBL) lowering compared to vehicle [1]: exhibited activity for inducing PBL lowering (lymphopenia)

O=C(O)CC1CCn2c1nc1cc(OCc3ccc(C4CCCC4)c(C(F)(F)F)c3)ccc12 (centres unmarked) [Compound 14, 2-(6-(4-cyclopentyl-3-(trifluoromethyl)benzyloxy)-2,3-dihydro-1H-benzo[d]pyrrolo[1,2-a]imidazol-3-yl)acetic acid]
EC50 (human S1P1 receptor): 6.3 nM

CC(C)Oc1ccc(COc2ccc3c(c2)cc2n3CCC2CC(=O)O)cc1C#N (centres unmarked) [Compound 6, 2-(7-(3-cyano-4-isopropoxybenzyloxy)-2,3-dihydro-1H-pyrrolo[1,2-a]indol-1-yl)acetic acid]
EC50 (human S1P1 receptor): 0.239 nM

CC(C)Cc1ccc(COc2ccc3c(c2)cc2n3CCC2CC(=O)O)cc1C(F)(F)F (centres unmarked) [Compound 4, 2-(7-(4-isobutyl-3-(trifluoromethyl)benzyloxy)-2,3-dihydro-1H-pyrrolo[1,2-a]indol-1-yl)acetic acid]
EC50 (human S1P1 receptor): 0.321 nM

O=C(O)CC1CCn2c1cc1cc(OCc3ccc(C4CCCC4)c(C(F)(F)F)c3)ccc12 (stereo not drawn) [first enantiomer isolated after resolution of compound 12 by HPLC, 2-(7-(4-cyclopentyl-3-(trifluoromethyl)benzyloxy)-2,3-dihydro-1H-pyrrolo[1,2-a]indol-1-yl)acetic acid]
peripheral blood lymphocyte (PBL) lowering compared to vehicle [2]: exhibited activity for inducing PBL lowering (lymphopenia)

O=C(O)CC1CCn2c1c(C1CCC1)c1cc(OCc3ccc(C4CCCC4)c(C(F)(F)F)c3)ccc12 (centres unmarked) [Compound 11, 2-(9-cyclobutyl-7-(4-cyclopentyl-3-(trifluoromethyl)benzyloxy)-2,3-dihydro-1H-pyrrolo[1,2-a]indol-1-yl)acetic acid]
EC50 (human S1P1 receptor): 5.2 nM

O=C(O)CC1CCn2c1c(I)c1cc(OCc3ccc(C4CCCC4)c(C(F)(F)F)c3)ccc12 (centres unmarked) [Compound 10, 2-(7-(4-cyclopentyl-3-(trifluoromethyl)benzyloxy)-9-iodo-2,3-dihydro-1H-pyrrolo[1,2-a]indol-1-yl)acetic acid]
EC50 (human S1P1 receptor): 0.011 nM

O=C(O)CC1CCn2c1cc1cc(OCc3ccc(C4CCCC4)c(C(F)(F)F)c3)ccc12 (stereo not drawn) [second enantiomer isolated after resolution of compound 12 by HPLC, 2-(7-(4-cyclopentyl-3-(trifluoromethyl)benzyloxy)-2,3-dihydro-1H-pyrrolo[1,2-a]indol-1-yl)acetic acid]
reduction of mean ankle diameter compared to vehicle [3]: exhibited activity for reducing mean ankle diameter

CCCCCCCCc1ccc(CCC(N)(CO)CO)cc1 [FTY720]
induction of lymphopenia (peripheral lymphocyte lowering) (peripheral lymphocytes): rapidly and reversibly induce lymphopenia | adverse event in clinical trials [4]: transient asymptomatic bradycardia | MRI lesions and clinical disease activity (multiple sclerosis): reduce the number of lesions detected by magnetic resonance imaging (MRI) and clinical disease activity | ocular infiltrates [5]: rapidly reduced ocular infiltrates | ovariectomy-induced osteoporosis [6]: relieved ovariectomy-induced osteoporosis | VEGF-induced vascular permeability [7]: potently blocked VEGF-induced vascular permeability | nociceptive behavior [8]: reduce the nociceptive behavior | initiation of contact hypersensitivity [9]: impair initiation of murine contact hypersensitivity | development of EAMG [10]: completely prevented the development of experimental autoimmune myasthenia gravis
